Data: PMC11603075 (Communications Biology, 2024)

How the values were obtained:
KDM5C = biological target: T1, KDM5C (Homo sapiens, UniProt P41229); assay: MALDI–TOF MS demethylation/+16 Da assay, KDM5C; format: biochemical; details: 90 min
T1 construct: KDM5C 1– 765; made in house; host or cells: Sf9 cells
T1 sequence (P41229 1-765): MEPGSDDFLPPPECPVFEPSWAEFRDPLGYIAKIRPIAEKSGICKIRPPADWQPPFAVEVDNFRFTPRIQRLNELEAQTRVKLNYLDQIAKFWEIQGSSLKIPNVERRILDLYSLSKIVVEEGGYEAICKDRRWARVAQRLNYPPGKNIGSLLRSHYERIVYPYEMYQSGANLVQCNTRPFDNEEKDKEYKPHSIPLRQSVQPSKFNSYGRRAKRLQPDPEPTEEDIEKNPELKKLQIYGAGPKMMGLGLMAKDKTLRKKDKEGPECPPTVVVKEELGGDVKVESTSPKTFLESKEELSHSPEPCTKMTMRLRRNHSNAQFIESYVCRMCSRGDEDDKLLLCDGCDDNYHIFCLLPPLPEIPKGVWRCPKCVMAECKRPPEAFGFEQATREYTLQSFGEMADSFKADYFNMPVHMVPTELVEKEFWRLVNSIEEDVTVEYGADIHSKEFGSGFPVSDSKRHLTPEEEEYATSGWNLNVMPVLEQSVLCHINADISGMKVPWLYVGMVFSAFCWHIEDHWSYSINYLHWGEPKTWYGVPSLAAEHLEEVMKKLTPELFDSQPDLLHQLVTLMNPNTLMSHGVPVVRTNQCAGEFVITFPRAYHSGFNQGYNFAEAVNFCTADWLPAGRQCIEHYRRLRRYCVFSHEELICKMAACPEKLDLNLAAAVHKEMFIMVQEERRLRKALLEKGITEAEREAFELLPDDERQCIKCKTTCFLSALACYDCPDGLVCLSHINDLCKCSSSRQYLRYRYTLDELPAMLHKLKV
Source text: (§1) Fig. 2 Histone H2a fragments are KDM5 and KDM4 substrates. […] See Supplementary Table 6 and Supplementary Fig. 2 for assay conditions and quantification, respectively. […] 0-minute MS spectrum in black, 60/90-minute spectrum in red.
(§2) MS-based screening assays with peptides and calf thymus histones were as reported; see Supplementary Table 6 for conditions. Time course assays were based on reported procedures. In brief, equal volumes of the enzyme and substrate solutions were combined to initiate the reaction; 10 µL of 2% (v/v) formic acid (HCOOH) in ddH2O or 100% methanol was added to 10 µL of the reaction mixture to quench reactions at different time points. Unless otherwise stated, time course assays were carried out in triplicate. In some cases, LC–MS was used instead of MALDI-TOF MS to avoid a MALDI matrix induced artefact with the hydroxylated product (Supplementary Fig. 16). […]
(§3) Supplementary Figure 2 Histone H2a peptide fragments are substrates of KDM4s and KDM5s.
(§4) 2 for representative corresponding MALDI–TOF MS traces. Bar graphs comparing % product format ion (+16 Da and demethylation) of H2a(1–20)R3me2a by (a) K DM5 A–D (after 90 minutes) and (b) KDM4A–E ( a ft er 60 minutes), analysed by MALDI– TOF MS. n = (a) 2, (b) 3 (independent assays). See Supplementary Table 6 for assay condit ions. See Figure S13 A 1 for a positive control.
(§5) (also on this page, place not known: formation KDM5A–D (after MALDI–TOF conditions. Figure S13A1 KDM4A KDM4B KDM4C KDM4D KDM4E 80% product formation KDM5A KDM5B KDM5C KDM5D % product formation) […]
(§6) [ E nz ym e] [Peptide] [2OG] [Ascorbate] [(NH4)2F e(S O4)2] [TCEP] Buffer pH7.5 Enzyme Cognate substrate (mM) (mM) (mM) (mM) (mM) (mM) [HE PE S]
(§7) Supplementary Table 6 Summary of MS assay conditions for substrate screening. These conditions enabled efficient turnover of established substrates. Reactions were carried out at 37 °C unless otherwise st ated. […]

KDM5B = assay: MALDI–TOF MS demethylation/+16 Da assay, KDM5B; format: biochemical, human; details: 90 min
Source text: as §1, §2, §3, §4, §5, §6, §7

KDM4A1–1064 = assay: MALDI–TOF MS product formation, full length KDM4A1–1064; format: biochemical, human; details: 60 min; for % product formation: 1 µM enzyme, 10 µM peptide
Description: Supplementary Figure 5 H2aR3me2a is a substrate of full length KDM4A. (a) Representative MALDI–T OF
MS (60 -minute incubation) (from top to bottom) K DM4A 1–1064, KDM4A1–35 9 and KDM4E1–337 w it h H 2 a( 1–
Representative data are shown from n = 3 (independent assays). Charge state of labelled ions: [MH]+. (b)
Bar graph comparing % product format ion of H2a(1 –20)R3me2a by KDM4A1–10 64, KDM4A1–359 and KDM4E1–
33 7, analysed by MALDI–TOF MS. n = 2/3 (independent assays). Conditions: 1 µM KDM4A1–359 and KDM4E1–
(NH4)2Fe(SO4)2, and 50 mM HEPES (pH 7.5), 1 mM TCEP, 0.02% (v/v) Triton-X . […]

“Ac - SGR [ me 2a ] GKQ GGKAR AKAKT R SSR [H2a(1–20)R3me2a, H2a(1–20)R3me2a without a biotin tag]” was tested, and the “+16 Da (% product formation)” value (KDM5C; replicate 1) was 0%, the “demethylation (% product formation)” value (KDM5C; replicate 1) was 80.591% and the “+16 Da (% product formation)” value (KDM5C; replicate 2) was 0%. For the same substance, the “demethylation (% product formation)” value (KDM5C; replicate 2) was 82.588%, the “+16 Da (% product formation)” value (KDM5B; replicate 1) was 0% and the “demethylation (% product formation)” value (KDM5B; replicate 1) was 23.54%. For the same substance, the “+16 Da (% product formation)” value (KDM5B; replicate 2) was 0%, the “demethylation (% product formation)” value (KDM5B; replicate 2) was 18.654% and the “% product formation” value (KDM4A1–1064; replicate 1) was 19.2569%. For the same substance, the “% product formation” value (KDM4A1–1064; replicate 2) was 31.6947%, the “% product formation” value (KDM4A1–1064; replicate 3) was 39.2291% and the “–14 Da mass shift (demethylation)” value (KDM4A1–1064; MALDI–TOF MS, n = 3) was “–14 Da mass shifts”.
